The text below walks through data of ChEMBL document CHEMBL2057100, “The optimization of pyridazinone series of glucan synthase inhibitors” (Bioorg Med Chem Lett, 2012).

SMILES strings stand for the structures. In brackets after ≈: the same amount, converted by molar mass. Activity calls are given as the source filed them. The rule behind the calls is not given here.

Data set [1] has as its system Candida albicans. The data set can be described thus: Antifungal activity against Candida albicans C697 infected in normal mouse assessed as reduction of fungal burden in kidney at 100 mg/kg, ip. The format is functional, organism-based. More on the design: dose 100 mg/kg.
Data set [2] deals with Aspergillus fumigatus. The data set can be described thus: Induction of morphological changes in Aspergillus fumigatus ND158 assessed as induction of truncated and highly branched hyphae. The class given is functional, organism-based.
Data set [3] concerns Candida albicans. The data set can be described thus: Antifungal activity against Candida albicans C697 infected in immune compromised mouse assessed as reduction of fungal burden in kidney at 100 mg/kg, ip. The format is functional, organism-based. More on the design: dose 100 mg/kg.
Data set [4] has as its system Rattus norvegicus. Briefly: (§1) AUC (0 to 6 hrs) in rat at 10 mg/kg, po. The class given is ADME, organism-based, Plasma. More on the design: time < 6 hr, dose 10 mg/kg, route oral. The settings on record: in vivo, 6 h, BLD = below limit of detection.
Data set [5] concerns Nakaseomyces glabratus. The data set can be described thus: Antifungal activity against Candida glabrata C624 by broth dilution method. The format is functional. The settings on record: read-out: MIC100. For orientation: In broth dilution the organism is exposed to a series of concentrations in liquid medium.
Data set [6] deals with Candida albicans. The data set can be described thus: Antifungal activity against Candida albicans C693 by broth dilution method. The class given is functional. As to conditions: read-out: MIC100.
In data set [7] the target is T1, Beta-1,3-glucan synthase (Candida albicans, UniProt O13383).
T1 sequence (O13383 whole entry): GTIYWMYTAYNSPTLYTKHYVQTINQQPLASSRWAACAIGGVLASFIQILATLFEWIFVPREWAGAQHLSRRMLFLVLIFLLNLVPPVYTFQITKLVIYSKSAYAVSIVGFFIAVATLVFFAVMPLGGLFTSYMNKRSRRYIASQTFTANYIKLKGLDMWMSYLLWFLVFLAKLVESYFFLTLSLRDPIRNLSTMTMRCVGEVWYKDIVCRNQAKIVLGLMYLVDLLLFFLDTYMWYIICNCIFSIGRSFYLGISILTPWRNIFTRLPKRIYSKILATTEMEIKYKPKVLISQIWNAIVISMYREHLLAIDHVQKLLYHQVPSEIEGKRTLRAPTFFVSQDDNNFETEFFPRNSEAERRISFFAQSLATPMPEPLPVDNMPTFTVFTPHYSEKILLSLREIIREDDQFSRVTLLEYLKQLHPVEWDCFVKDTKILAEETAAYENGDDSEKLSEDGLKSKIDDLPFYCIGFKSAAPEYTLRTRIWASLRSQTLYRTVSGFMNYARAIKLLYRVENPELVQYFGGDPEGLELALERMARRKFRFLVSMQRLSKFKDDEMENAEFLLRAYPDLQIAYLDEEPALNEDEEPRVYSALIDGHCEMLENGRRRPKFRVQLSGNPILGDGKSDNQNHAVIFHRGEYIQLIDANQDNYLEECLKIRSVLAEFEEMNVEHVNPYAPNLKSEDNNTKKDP
Briefly: Inhibition of 1,3-beta-D-glucan synthase in Candida albicans BWP17 membranes. The class given is cell membranes.

Data set [8] concerns Candida albicans. Briefly: Antifungal activity against Candida albicans C697 infected in normal mouse assessed as increase of host survival at 100 mg/kg, ip measured for 4 days. The settings on record: 96 h, route intraperitoneal. The format is functional.
The test system of data set [9] is Candida albicans. The data set can be described thus: Antifungal activity against Candida albicans C697 infected in immune compromised mouse assessed as increase of host survival at 100 mg/kg, ip measured for 4 days. The format is functional. As to conditions: 96 h, route intraperitoneal.
Data set [10] concerns Candida albicans. The data set can be described thus: Antifungal activity against Candida albicans C697 infected in immune compromised mouse assessed as increase of host survival at 5 mg/kg, ip measured for 4 days. The format is functional. As to conditions: 96 h, route intraperitoneal.
Data set [11] relates to Candida albicans. Briefly: Antifungal activity against Candida albicans C697 infected in immune compromised mouse assessed as reduction of fungal burden in kidney at 5 mg/kg, ip. The format is functional, organism-based. More on the design: dose 5 mg/kg.
In data set [12] the test system is Candida albicans. The data set can be described thus: Antifungal activity against Candida albicans C697 infected in normal mouse assessed as increase of host survival at 5 mg/kg, ip measured for 4 days. The format is functional. As to conditions: 96 h, route intraperitoneal.
The test system of data set [13] is Candida albicans. The data set can be described thus: Antifungal activity against Candida albicans C697 infected in normal mouse assessed as reduction of fungal burden in kidney at 5 mg/kg, ip. The class given is functional, organism-based. More on the design: dose 5 mg/kg.
Data set [14] in a line: Cmax in rat at 10 mg/kg, po. The format is ADME, organism-based. Also on record: dose 10 mg/kg, route oral. The settings on record: in vivo.
Data set [15] has as its system Aspergillus fumigatus. Briefly: Antifungal activity against Aspergillus fumigatus ND158 by broth dilution method. The format is functional. As to conditions: read-out: MEC.
Data set [16] is described as follows: as §1. The format is ADME, organism-based, Plasma. More on the design: time < 6 hr, dose 10 mg/kg, route oral. The settings on record: plasma.

Regarding `Cc1cc(CS(=O)(=O)N2CCN(c3cnn(-c4cccc(Cl)c4)c(=O)c3OCC3(C)CC3)CC2)ccc1N` [listing 1 of 3 here], the outcome in [1], in [2] and in [3] was Active.
In the case of `O=c1c(OC2CCCC2)c(N2CCN(S(=O)(=O)Cc3cccc(O)c3)CC2)cnn1-c1cc(F)cc(F)c1`, in data set [4], the AUC result is “BLD”. The results for the MIC in [5] and in data set [6] were 0.26 mg/L (≈ 0.476 µM) and 2.1 mg/L (≈ 3.84 µM), respectively. In data set [7], it took 0.0915 µM to reach half-maximal inhibition (IC50).
As to `Cc1cc(CS(=O)(=O)N2CCN(c3cnn(-c4cccc(Cl)c4)c(=O)c3OCC3(C)CC3)CC2)ccc1N` [listing 2 of 3 here], the survival at 100 mg/kg in data set [8] and in data set [9] was 100% in each case.
With `CC[C@H](C)C[C@H](C)CCCCCCCCC(=O)N[C@H]1C[C@@H](O)[C@@H](NCCN)NC(=O)[C@@H]2[C@@H](O)CCN2C(=O)[C@H]([C@H](O)CCN)NC(=O)[C@H]([C@H](O)[C@@H](O)c2ccc(O)cc2)NC(=O)[C@@H]2C[C@@H](O)CN2C(=O)[C@H]([C@@H](C)O)NC1=O` [CASPOFUNGIN], the survival at 5 mg/kg in data set [10] and in [12] was 100% throughout. Moreover, the outcome in data set [11] and in [13] was Active.
Regarding `CC1(COc2c(N3CCN(S(=O)(=O)Cc4cccnc4N)CC3)cnn(-c3cccc(Cl)c3)c2=O)CC1`, in [14], the highest concentration (Cmax) (commonly the maximum level reached in the sampled fluid or tissue) stood at 1.7 µg/mL. Further, in data set [15], the minimal effective concentration was found to be 8.4 µg/mL. Further, the AUC(0-t) – broadly, the area under the concentration-time curve up to a stated or last time point – at 6 h in [16] turned out to be 5.2 µg·h/mL. Also, the MIC was 0.06 mg/L (≈ 0.11 µM) in data set [5] and 2.08 mg/L (≈ 3.82 µM) in data set [6]. In addition, 0.239 µM corresponded to half-maximal inhibition in data set [7] (IC50).
In the case of `Cc1cc(CS(=O)(=O)N2CCN(c3cnn(-c4cccc(Cl)c4)c(=O)c3OCC3(C)CC3)CC2)ccc1N` [listing 3 of 3 here], the highest level in data set [14] (Cmax) was 3 µg/mL. In addition, the minimal effective concentration in data set [15] was determined as 2.08 µg/mL. In addition, the AUC(0-t) at 6 h in [16] was determined as 15 µg·h/mL. Besides, the figures for the MIC in [5] and in [6] were 0.13 mg/L (≈ 0.233 µM) and 1.04 mg/L (≈ 1.86 µM), respectively. The half-inhibitory concentration (IC50) (as a rule, the midpoint of a concentration-inhibition curve) in data set [7] was 0.143 µM.
The compound `CCc1cc(CS(=O)(=O)N2CCN(c3cnn(-c4cccc(Cl)c4)c(=O)c3OCC3(C)CC3)CC2)ccc1N` returned a Cmax in [14] of 2.3 µg/mL. Moreover, the minimal effective concentration in data set [15] came out at 4.2 µg/mL. Besides, the exposure AUC(0-t) at 6 h in data set [16] amounted to 9.4 µg·h/mL. For the same compound, the MIC turned out to be 0.13 mg/L (≈ 0.227 µM) in data set [5] and 4.2 mg/L (≈ 7.34 µM) in [6]. In data set [7], this compound showed an IC50 of 0.315 µM.
In [14], `CC(C)c1cc(CS(=O)(=O)N2CCN(c3cnn(-c4cccc(Cl)c4)c(=O)c3OCC3(C)CC3)CC2)ccc1N` returned a maximum concentration (Cmax) of 0.7 µg/mL. The minimal effective concentration in data set [15] was greater than 33 µg/mL. In data set [16], this compound showed an area under the curve AUC(0-t) at 6 h of 2.1 µg·h/mL. In addition, the MIC in data set [5] is 16.7 mg/L (≈ 28.5 µM); in data set [6] it was greater than 33 mg/L. The same compound showed an IC50 in data set [7] of 0.631 µM.
